Data published in patent US20190390220A1, “Compositions and Methods of Increasing Aphid Resistance in Transgenic Plants” (Boyce Thompson Institute, priority 2018, published 2019).

Assays:
Trichoplusia ni = conditions: constitutively produced in soybean PI 227697 leaves; cited from earlier work
Anticarsia gemmatalis = conditions: constitutively produced in soybean PI 227697 leaves; cited from earlier work
A. pisum = assay: flavonoid in vitro feeding bioassay on artificial diet, pea aphid; assay type: in vivo, Acyrthosiphon pisum; conditions: artificial diet with 0.2% daidzein, 0.01% prunetin or 0.04% formononetin; compared with control diet (DMSO) or flavones; adults
Experimental: (§1) A pea aphid colony (A. pisum strain CWR09/18, kindly supplied by Angela Douglas, Cornell University) was reared on faba bean plants (Viciafaba, var. Windsor; Johnny's Selected Seeds, Winslow, Me., USA) which were grown in Metromix 200 (Scotts, Marysville, Ohio, USA) in a growth chamber at the same condition with soybeans in insect rearing room at 25° C. with a 12:12 h day:night cycle (64). A soybean aphid colony (A. glycines), kindly supplied by Gustavo Macintosh at Iowa State University, was reared on soybean plants (G. max var. William 82) that were grown in same soil and conditions as described for the pea aphid colony.
(§2) For flavonoid in vitro feeding bioassays, the effects of three isoflavones, daidzein, formononetin and prunetin, as well as two flavones, apigenin and kaempferol on A. glycines and A. pisum adults were tested by rearing 30 insects on an artificial diet (65) in membrane feeding tubes. Adults were fed an artificial diet containing one of the following treatments, 0.01% apigenin, 0.2% daidzein, 0.01% prunetin, 0.04% formononetin or 0.02% kaempferol for 6 days in an insect rearing room (25° C. with a 12:12 h day:night cycle). […] The compound concentrations for diet experiments were based on their measured concentrations in soybean leaves. After 6 days of feeding, the number of surviving aphids was counted.

A. glycines = assay: flavonoid in vitro feeding bioassay on artificial diet, soybean aphid; assay type: in vivo, Aphis glycines; conditions: artificial diet with 0.01% apigenin; compared with control diet (DMSO); adults
Experimental: as §1, §2

O=c1c(-c2ccc(O)cc2)coc2cc(O[C@@H]3O[C@H](CO)[C@@H](O)[C@H](O)[C@H]3O)cc(O)c12 [genistin]
performance of Trichoplusia ni larvae (Trichoplusia ni): negatively affect the performance | performance of Anticarsia gemmatalis larvae (Anticarsia gemmatalis): negatively affect the performance

COc1cc(O)c2c(=O)c(-c3ccc(O)cc3)coc2c1 [prunetin]
mortality of PA (A. pisum): higher mortality

O=c1cc(-c2ccc(O)cc2)oc2cc(O)cc(O)c12 [apigenin]
mortality of SBA (A. glycines): increased

O=c1c(-c2ccc(O)cc2)coc2cc(O)ccc12 [daidzein]
mortality of PA (A. pisum): higher mortality
